The assay concerns serum cholesterol and serum triglycerides. As to the kind of experiment: Hypolipidaemic activity in rats (compound in diet, last 7 of 10 days). Format: in vivo, Male Wistar rats. The following applies: Rattus norvegicus, po, 168 h, 7 days; for change in vivo at 0.2 % strength: 0.2 % w/w dose in diet; for change in vivo at 0.1 % strength: 0.1 % w/w dose in diet. The method, then:
Hypolipidaemic Activity in Rats
Male Wistar rats each weighing between 120 and 150 g were caged in groups of eight and fed a powdered diet for 10 days. For the last 7 days of that period the test compound was administered orally by mixing the compound in the diet and allowing the animals to feed normally. Food consumption was measured on day 9 for each group.
At noon on day 10 the animals were killed by inhalation of carbon dioxide from solid carbon dioxide. A sample of blood was removed by cardiac puncture and the serum cholesterol and serum triglycerides were analysed by means of an autoanalyser.
Control groups (receiving only the normal, unmedicated diet) were included with each test.
The percentage reductions in the concentrations of serum cholesterol and serum triglycerides were calculated by comparison with the simultaneous controls, for each concentration of the test compound used.

Setting [1] is: read-out: % change in serum cholesterol compared with control.
The mark [2] stands for this setting: read-out: % change in serum triglycerides compared with control.

Where a name gives a salt, the structure may show the parent alone. Read-outs that look alike come from different tables or passages of the source.

Turning to `CCCCCCCCc1cc2ccc(C(=O)O)cc2[nH]1` [Compound P, 2-(n-octyl)indole-6-carboxylic acid], the change in vivo at 0.2 % strength under setting [1] is -32% and the change in vivo at 0.2 % strength under setting [2] is -37%.
Take `CCCCCCCCCCCCc1cc2cc(C(=O)OC)ccc2[nH]1` [Compound AVV, methyl 2-(n-dodecyl)indole-5-carboxylate]: under setting [1], the change in vivo at 0.1 % strength is -16% and the change in vivo at 0.2 % strength is -21%. Under setting [2], the change in vivo at 0.1 % strength is -65% and the change in vivo at 0.2 % strength is -80%.
Take `CCCCCCCCCCCCCc1cc2ccc(C(=O)O)cc2[nH]1` [Compound A, 2-(n-tridecyl)indole-6-carboxylic acid]: the change in vivo at 0.2 % strength under setting [1] was -26% and the change in vivo at 0.2 % strength under setting [2] is -33%.
As to `CCCCCCCCCCCc1cc2cccc(C(=O)O)c2[nH]1` [Compound XX, 2-(n-undecyl)indole-7-carboxylic acid], the change in vivo at 0.2 % strength runs as follows: under setting [1], -2%; under setting [2], 8%.
For `CCCCCCCCCc1cc2cccc(C(=O)O)c2[nH]1` [Compound WW, 2-(n-nonyl)indole-7-carboxylic acid], the change in vivo at 0.2 % strength is -3% under setting [1] and 45% under setting [2].
In the case of `CCCCCCCCCCCC1Cc2ccc(C(=O)O)cc2N1C` (racemic) [Compound BII, (RS)-1-methyl-2-(n-undecyl)indoline-6-carboxylic acid], the change in vivo at 0.2 % strength is 0% under setting [1] and -30% under setting [2].
For the compound `CCCCCCCCCCCc1cc2ccc(C(=O)O)cc2[nH]1` [Compound C, 2-(n-undecyl)indole-6-carboxylic acid], the change in vivo at 0.1 % strength runs as follows: under setting [1], -28%; under setting [2], -39%.
Turning to `CCCCCCCCCCCCCCCCCCc1c[nH]c2ccc(C(=O)O)cc12` [Compound BSS, 3-(n-octadecyl)indole-5-carboxylic acid], the change in vivo at 0.2 % strength under setting [1] is -9% and the change in vivo at 0.2 % strength under setting [2] was -11%.
Take `CCCCCCCCCCCC1Cc2ccc(C(=O)O)cc2N1` (racemic) [Compound AFF, (RS)-2-(n-undecyl)indoline-6-carboxylic acid]: the change in vivo at 0.2 % strength is -38% under setting [1] and -58% under setting [2].
With `CCCCCCCCCCCCCCCCCc1cc2ccc(C(=O)O)cc2[nH]1` [Compound B, 2-(n-heptadecyl)indole-6-carboxylic acid], the change in vivo at 0.2 % strength is 5% under setting [1] and -4% under setting [2].
As for `CCCCCCCCCCCCc1cc2cc(C(=O)OCCCC)ccc2[nH]1` [Compound KK, n-butyl 2-(n-dodecyl)indole-5-carboxylate], the change in vivo at 0.2 % strength under setting [1] is -18% and the change in vivo at 0.2 % strength under setting [2] is -34%.
In the case of `CCCCCCCc1cc2cc(C(=O)OCC)ccc2[nH]1` [Compound DD, ethyl 2-(n-heptyl)indole-5-carboxylate], the change in vivo at 0.2 % strength under setting [1] is -6% and the change in vivo at 0.2 % strength under setting [2] is -25%.
Taken in the same sequence, the figures for `CCCCCCCCCCCCCCc1cc2ccc(C(=O)O)cc2[nH]1` [Compound SS, 2-(n-tetradecyl)indole-6-carboxylic acid] were -14% and 3%.
Consider `CCCCCCCCCCCC1Nc2cc(C(=O)O)ccc2C1C` (stereo not drawn) [Compound CNN, 2(RS),3(RS)-2-(n-undecyl)-3-methylindoline-6-carboxylic acid], for which the change in vivo at 0.2 % strength by setting is: under setting [1], -31%; under setting [2], -72%.
On to `CCCCCCCCCCCCCCCc1cc2ccc(C(=O)O)cc2[nH]1` [D sodium salt], for which the change in vivo at 0.1 % strength was -10% under setting [1] and -18% under setting [2].
For the compound `CCCCCCCCCCCCc1cc2ccc(C(=O)O)cc2[nH]1` [Compound S, 2-(n-dodecyl)indole-6-carboxylic acid], the change in vivo at 0.2 % strength is -26% under setting [1] and -52% under setting [2].
Take `CCCCCCCCCCCc1cc2ccc(C(=O)OCC(O)CO)cc2[nH]1` (racemic) [Compound CVV, (RS)-2,3-dihydroxyprop-1-yl 2-(n-undecyl)indole-6-carboxylate]: the change in vivo at 0.1 % strength is, setting by setting: under setting [1], -16%; under setting [2], -56%.
`CCCCCCCCCCCCCCCCC1CNc2cc(C(=O)O)ccc21` (racemic) [Compound CDD, (RS)-3-(n-hexadecyl)indoline-6-carboxylic acid]: the change in vivo at 0.2 % strength reads like this: under setting [1], -19%; under setting [2], -41%.
Taken in the same sequence, the figures for `CCCCCCCCCCCCCCCc1cc2c(C(=O)O)cccc2[nH]1` [Compound J, 2-(n-pentadecyl)indole-4-carboxylic acid] were -9% and -2%.
With `CCCCCCCCCCCCC1CNc2cc(C(=O)O)ccc21` (racemic) [Compound CAA, (RS)-3-(n-dodecyl)indoline-6-carboxylic acid], the change in vivo at 0.2 % strength reads like this: under setting [1], -28%; under setting [2], -46%.
As to `CCCCCCCCC1CNc2cc(C(=O)O)ccc21` (racemic) [Compound CCC, (RS)-3-(n-octyl)indoline-6-carboxylic acid], the change in vivo at 0.2 % strength was -11% under setting [1] and -28% under setting [2].
With `CCCCCCCCCCCCCCCCCCCCc1cc2ccc(C(=O)O)cc2[nH]1` [Compound UU, 2-(n-eicosyl)indole-6-carboxylic acid], the change in vivo at 0.2 % strength under setting [1] was -15% and the change in vivo at 0.2 % strength under setting [2] is -29%.
Taken in the same sequence, the figures for `CCCCCCCCCCCCCCCCCCc1c[nH]c2cc(C(=O)O)ccc12` [Compound BGG, 3-(n-octadecyl)indole-6-carboxylic acid] were -7% and -7%.
As for `CCCCCCCCCCc1cc2ccc(C(=O)O)cc2[nH]1` [Compound N, 2-(n-decyl)indole-6-carboxylic acid], the change in vivo at 0.2 % strength by setting is: under setting [1], -20%; under setting [2], -45%.
As for `CCCCCCCCCC(C)c1cc2ccc(C(=O)O)cc2[nH]1` (racemic) [Compound VV, (RS)-2-(1-methyldecyl)indole-6-carboxylic acid], the change in vivo at 0.2 % strength is, setting by setting: under setting [1], -40%; under setting [2], -73%.
The corresponding values for `CCCCCCCCCCCCCCCc1cc2c(C(=O)OCCCC)cccc2[nH]1` [Compound MM, n-butyl 2-(n-pentadecyl)indole-4-carboxylate] are 25% and -41%.
For the compound `CCCCCCCc1cc2ccc(C(=O)O)cc2[nH]1` [Compound R, 2-(n-heptyl)indole-6-carboxylic acid], the change in vivo at 0.2 % strength is -12% under setting [1] and -18% under setting [2].
Consider `CCCCCCCCCCCCc1c[nH]c2cc(C(=O)O)ccc12` [Compound BDD, 3-(n-dodecyl)indole-6-carboxylic acid], for which the change in vivo at 0.2 % strength runs as follows: under setting [1], -2%; under setting [2], -5%.
With `CCCCCCCCCCCCCCCCC1CNc2ccc(C(=O)OC)cc21` (racemic) [Compound BNN, (RS)-methyl 3-(n-hexadecyl)indoline-5-carboxylate], the change in vivo at 0.2 % strength under setting [1] turned out to be 7% and the change in vivo at 0.2 % strength under setting [2] was -20%.
As for `CCCCCCCCCCCc1cc2cc(C(=O)OCCCC)ccc2[nH]1` [Compound AUU, n-butyl 2-(n-undecyl)indole-5-carboxylate], the change in vivo at 0.2 % strength is -14% under setting [1] and -57% under setting [2].
`CCCCCCCCCCCc1cc2cc(C(=O)OCC)ccc2[nH]1` [Compound U, ethyl 2-(n-undecyl)indole-5-carboxylate]: the change in vivo at 0.2 % strength by setting is: under setting [1], -13%; under setting [2], -39%.
For `CCCCCCCCCCCCCCCCCCCCc1cc2cc(C(=O)O)ccc2[nH]1` [Compound AA, 2-(n-eicosyl)indole-5-carboxylic acid], the change in vivo at 0.2 % strength is -36% under setting [1] and -57% under setting [2].
For the compound `CCCCCCCCCCCCCCCc1cc2cc(C(=O)OCCCC)ccc2[nH]1` [Compound HH, n-butyl 2-(n-pentadecyl)indole-5-carboxylate], the change in vivo at 0.2 % strength is -24% under setting [1] and -50% under setting [2].
With `CCCCCCCCCCCCCCCc1cc2cccc(C(=O)O)c2[nH]1` [Compound I, 2-(n-pentadecyl)indole-7-carboxylic acid], the change in vivo at 0.2 % strength by setting is: under setting [1], -26%; under setting [2], -33%.
On to `CCCCCCCCCCC1CNc2ccc(C(=O)O)cc21` (racemic) [Compound BPP, (RS)-3-(n-decyl)indoline-5-carboxylic acid], for which the change in vivo at 0.2 % strength reads like this: under setting [1], -3%; under setting [2], 0%.
With `CCCCCCCCCCCCCCCC1CNc2cc(C(=O)O)ccc21` (racemic) [Compound BZZ, (RS)-3-(n-pentadecyl)indoline-6-carboxylic acid], the change in vivo at 0.2 % strength is, setting by setting: under setting [1], -1%; under setting [2], -29%.
As for `CCCCCCCCCCCCCCCCCc1cc2cc(C(=O)O)ccc2[nH]1` [Compound E, 2-(n-heptadecyl)indole-5-carboxylic acid], under setting [1], the change in vivo at 0.1 % strength is -42% and the change in vivo at 0.2 % strength is -54%. Further, under setting [2], the change in vivo at 0.1 % strength was -55% and the change in vivo at 0.2 % strength was -65%.
Consider `CCCCCCCCCc1cc2ccc(C(=O)O)cc2[nH]1` [Compound L, 2-(n-nonyl)indole-6-carboxylic acid], for which the change in vivo at 0.2 % strength reads like this: under setting [1], -21%; under setting [2], -25%.
